Experimental data taken from patent US20210045385A1, “PYRIDAZINONE-SUBSTITUTED KETOXIMES AS HERBICIDES” (FMC Corporation, priority 2018, published 2021).

Assays:
Assay type in all cases: in vivo
[1] = tested on: Italian ryegrass (Lolium multiflorum); assay: Test A preemergence, visual plant response rating; conditions: for Ryegrass, Italian plant response rating: 125 g ai/ha, preemergence, 0 to 100 scale, 0 no effect, 100 complete control; for Ryegrass, Italian plant response rating (0 to 100 scale): approx. 10 days
In short: (§1)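 Formulated in a non-phytotoxic solvent mixture including surfactant, each test chemical was sprayed onto the soil surface after sowing, or onto seedlings 2 to 10 cm high. Roughly 10 days later, plants were compared with untreated controls and rated for injury from 0 (no effect) to 100 (complete control).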

kochia (Kochia scoparia) [2] = assay: Test A preemergence, visual plant response rating; conditions: for Kochia plant response rating: 125 g ai/ha, preemergence, 0 to 100 scale, 0 no effect, 100 complete control; for Kochia plant response rating (0 to 100 scale): approx. 10 days
In short: as §1

[3] = tested on: foxtail, green (green foxtail, Setaria viridis); assay: Test A preemergence, visual plant response rating; conditions: for Foxtail, Green plant response rating: 125 g ai/ha, preemergence, 0 to 100 scale, 0 no effect, 100 complete control; for Foxtail, Green plant response rating (0 to 100 scale): approx. 10 days
In short: as §1

[4] = tested on: pigweed (Amaranthus retroflexus); assay: Test A preemergence, visual plant response rating; conditions: for Pigweed plant response rating: 125 g ai/ha, preemergence, 0 to 100 scale, 0 no effect, 100 complete control; for Pigweed plant response rating (0 to 100 scale): approx. 10 days
In short: as §1

[5] = tested on: ragweed (common ragweed, Ambrosia elatior); assay: Test A preemergence, visual plant response rating; conditions: for Ragweed plant response rating: 125 g ai/ha, preemergence, 0 to 100 scale, 0 no effect, 100 complete control; for Ragweed plant response rating (0 to 100 scale): approx. 10 days
In short: as §1

[6] = tested on: barnyardgrass (Echinochloa crus-galli); assay: Test A preemergence, visual plant response rating; conditions: for Barnyardgrass plant response rating: 125 g ai/ha, preemergence, 0 to 100 scale, 0 no effect, 100 complete control; for Barnyardgrass plant response rating (0 to 100 scale): approx. 10 days
In short: as §1

[7] = tested on: Italian ryegrass (Lolium multiflorum); assay: Test A postemergence, visual plant response rating; conditions: for Ryegrass, Italian plant response rating (0 to 100 scale): 500 g ai/ha, postemergence, 0 is no effect, 100 is complete control; for Ryegrass, Italian plant response rating: Postemergence, 125 g ai/ha, 0 to 100 scale (0 no effect, 100 complete control)
In short: as §1

[8] = tested on: wheat (Triticum aestivum); assay: Test A postemergence, visual plant response rating; conditions: for Wheat plant response rating (0 to 100 scale): 500 g ai/ha, postemergence, 0 is no effect, 100 is complete control; for Wheat plant response rating: Postemergence, 125 g ai/ha, 0 to 100 scale (0 no effect, 100 complete control)
In short: as §1

kochia (Kochia scoparia) [9] = assay: Test A postemergence, visual plant response rating; conditions: for Kochia plant response rating (0 to 100 scale): 500 g ai/ha, postemergence, 0 is no effect, 100 is complete control; for Kochia plant response rating: Postemergence, 125 g ai/ha, 0 to 100 scale (0 no effect, 100 complete control)
In short: as §1

[10] = tested on: foxtail, green (green foxtail, Setaria viridis); assay: Test A postemergence, visual plant response rating; conditions: for Foxtail, Green plant response rating (0 to 100 scale): 500 g ai/ha, postemergence, 0 is no effect, 100 is complete control; for Foxtail, Green plant response rating: Postemergence, 125 g ai/ha, 0 to 100 scale (0 no effect, 100 complete control)
In short: as §1

[11] = tested on: pigweed (Amaranthus retroflexus); assay: Test A postemergence, visual plant response rating; conditions: for Pigweed plant response rating (0 to 100 scale): 500 g ai/ha, postemergence, 0 is no effect, 100 is complete control; for Pigweed plant response rating: Postemergence, 125 g ai/ha, 0 to 100 scale (0 no effect, 100 complete control)
In short: as §1

corn (Zea mays) = assay: Test A postemergence, visual plant response rating; conditions: for Corn plant response rating (0 to 100 scale): 500 g ai/ha, postemergence, 0 is no effect, 100 is complete control; for Corn plant response rating: Postemergence, 125 g ai/ha, 0 to 100 scale (0 no effect, 100 complete control)
In short: as §1

[12] = tested on: ragweed (common ragweed, Ambrosia elatior); assay: Test A postemergence, visual plant response rating; conditions: for Ragweed plant response rating (0 to 100 scale): 500 g ai/ha, postemergence, 0 is no effect, 100 is complete control; for Ragweed plant response rating: Postemergence, 125 g ai/ha, 0 to 100 scale (0 no effect, 100 complete control)
In short: as §1

[13] = tested on: blackgrass (Alopecurus myosuroides); assay: Test A postemergence, visual plant response rating; conditions: for Blackgrass plant response rating (0 to 100 scale): 500 g ai/ha, postemergence, 0 is no effect, 100 is complete control; for Blackgrass plant response rating: Postemergence, 125 g ai/ha, 0 to 100 scale (0 no effect, 100 complete control)
In short: as §1

[14] = tested on: barnyardgrass (Echinochloa crus-galli); assay: Test A postemergence, visual plant response rating; conditions: for Barnyardgrass plant response rating (0 to 100 scale): 500 g ai/ha, postemergence, 0 is no effect, 100 is complete control; for Barnyardgrass plant response rating: Postemergence, 125 g ai/ha, 0 to 100 scale (0 no effect, 100 complete control)
In short: as §1

[15] = tested on: galium (catchweed bedstraw, Galium aparine); assay: Test A postemergence, visual plant response rating; conditions: for Galium plant response rating (0 to 100 scale): 500 g ai/ha, postemergence, 0 is no effect, 100 is complete control; for Galium plant response rating: Postemergence, 125 g ai/ha, 0 to 100 scale (0 no effect, 100 complete control)
In short: as §1

rice (Oryza sativa) = assay: Test B flooded paddy test, visual plant response rating; conditions: 250 g ai/ha, Flood, applied to paddy water, 2-leaf stage, evaluated after 13 to 15 days
In short: (§2)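 Rice, umbrella sedge, ducksalad and barnyardgrass grown to 2-leaf stage; pots flooded 3 cm above soil and compound applied directly to paddy water, depth maintained.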

[16] = tested on: ducksalad (Heteranhera limosa); assay: as above; conditions: 250 g ai/ha, Flood, applied to paddy water, 2-leaf stage, evaluated after 13 to 15 days
In short: as §2

[17] = tested on: sedge, umbrella (small-flower umbrella sedge, Cyperus difformis); assay: as above; conditions: 250 g ai/ha, Flood, applied to paddy water, 2-leaf stage, evaluated after 13 to 15 days
In short: as §2

[18] = tested on: barnyardgrass (Echinochloa crus-galli); assay: as above; conditions: 250 g ai/ha, Flood, applied to paddy water, 2-leaf stage, evaluated after 13 to 15 days
In short: as §2

Structure (SMILES) | Ryegrass, Italian plant response rating (0 to 100 scale) ([1]; 500 g ai/ha Preemergence) | Kochia plant response rating (0 to 100 scale) (kochia (Kochia scoparia) [2]; 500 g ai/ha Preemergence) | Foxtail, Green plant response rating (0 to 100 scale) ([3]; 500 g ai/ha Preemergence) | Pigweed plant response rating (0 to 100 scale) ([4]; 500 g ai/ha Preemergence) | Ragweed plant response rating (0 to 100 scale) ([5]; 500 g ai/ha Preemergence) | Barnyardgrass plant response rating (0 to 100 scale) ([6]; 500 g ai/ha Preemergence) | Ryegrass, Italian plant response rating (0 to 100 scale) [7] | Ryegrass, Italian plant response rating [7] | Wheat plant response rating (0 to 100 scale) [8] | Wheat plant response rating [8] | Kochia plant response rating (0 to 100 scale) (kochia (Kochia scoparia) [9]) | Kochia plant response rating (kochia (Kochia scoparia) [9]) | Foxtail, Green plant response rating (0 to 100 scale) [10] | Foxtail, Green plant response rating [10] | Pigweed plant response rating (0 to 100 scale) [11] | Pigweed plant response rating [11] | Corn plant response rating (0 to 100 scale) (corn (Zea mays)) | Corn plant response rating (corn (Zea mays)) | Ragweed plant response rating (0 to 100 scale) [12] | Ragweed plant response rating [12] | also measured
CO/N=C(\c1cc(C)ccc1C)c1c(O)c(C)nn(C)c1=O [Compound 66] | 50 | 20 | 60 | 80 | 50 | 20 | 80 | 30 | 10 | 0 | 40 | 20 | 20 | 0 | 50 | 50 | 0 | 0 | 50 | 40 | Ryegrass, Italian plant response rating [1]: 30; Kochia plant response rating (kochia (Kochia scoparia) [2]): 0; Foxtail, Green plant response rating [3]: 30; Pigweed plant response rating [4]: 30; Ragweed plant response rating [5]: 20; Barnyardgrass plant response rating [6]: 0; Blackgrass plant response rating (0 to 100 scale) [13]: 50; Blackgrass plant response rating [13]: 0; Barnyardgrass plant response rating (0 to 100 scale) [14]: 30; Barnyardgrass plant response rating [14]: 10; Galium plant response rating (0 to 100 scale) [15]: 80; Galium plant response rating [15]: 60; Plant response rating, Rice (0 to 100 scale, 0 is no effect, 100 is complete control) (rice (Oryza sativa)): 0; Plant response rating, Ducksalad (0 to 100 scale, 0 is no effect, 100 is complete control) [16]: 0; Plant response rating, Sedge, Umbrella (0 to 100 scale, 0 is no effect, 100 is complete control) [17]: 0; Plant response rating, Barnyardgrass (0 to 100 scale, 0 is no effect, 100 is complete control) [18]: 0
CON=C(c1cccc(C)c1)c1c(O)c(Cl)nn(C)c1=O [Compound 128] | 20 | 80 | 10 | 80 | 80 | 30 | 10 | 0 | 10 | 0 | 70 | 50 | 30 | 20 | 60 | 30 | 0 | 0 | 80 | 50 | Ryegrass, Italian plant response rating [1]: 0; Kochia plant response rating (kochia (Kochia scoparia) [2]): 30; Foxtail, Green plant response rating [3]: 0; Pigweed plant response rating [4]: 100; Ragweed plant response rating [5]: 60; Barnyardgrass plant response rating [6]: 0; Blackgrass plant response rating (0 to 100 scale) [13]: 10; Blackgrass plant response rating [13]: 0; Barnyardgrass plant response rating (0 to 100 scale) [14]: 30; Barnyardgrass plant response rating [14]: 10; Galium plant response rating (0 to 100 scale) [15]: 90; Galium plant response rating [15]: 70; Plant response rating, Rice (0 to 100 scale, 0 is no effect, 100 is complete control) (rice (Oryza sativa)): 30; Plant response rating, Ducksalad (0 to 100 scale, 0 is no effect, 100 is complete control) [16]: 40; Plant response rating, Sedge, Umbrella (0 to 100 scale, 0 is no effect, 100 is complete control) [17]: 0; Plant response rating, Barnyardgrass (0 to 100 scale, 0 is no effect, 100 is complete control) [18]: 0
CCO/N=C(/c1cccc(C)c1C)c1c(O)c(C)nn(C)c1=O [Compound 24] | 50 | 0 | 60 | 40 | 60 | 10 | 40 | 10 | 0 | 0 | 20 | 0 | 20 | 0 | 60 | 30 | 0 | 0 | 60 | 30 | Ryegrass, Italian plant response rating (0 to 100 scale) ([1]; 125 g ai/ha Preemergence): 10; Kochia plant response rating (0 to 100 scale) (kochia (Kochia scoparia) [2]; 125 g ai/ha Preemergence): 0; Foxtail, Green plant response rating (0 to 100 scale) ([3]; 125 g ai/ha Preemergence): 20; Pigweed plant response rating (0 to 100 scale) ([4]; 125 g ai/ha Preemergence): 20; Ragweed plant response rating (0 to 100 scale) ([5]; 125 g ai/ha Preemergence): 30; Barnyardgrass plant response rating (0 to 100 scale) ([6]; 125 g ai/ha Preemergence): 0; Blackgrass plant response rating (0 to 100 scale) [13]: 40; Blackgrass plant response rating [13]: 10; Barnyardgrass plant response rating (0 to 100 scale) [14]: 30; Barnyardgrass plant response rating [14]: 0; Galium plant response rating (0 to 100 scale) [15]: 60; Galium plant response rating [15]: 50; Plant response rating, Rice (0 to 100 scale, 0 is no effect, 100 is complete control) (rice (Oryza sativa)): 0; Plant response rating, Ducksalad (0 to 100 scale, 0 is no effect, 100 is complete control) [16]: 0; Plant response rating, Sedge, Umbrella (0 to 100 scale, 0 is no effect, 100 is complete control) [17]: 0; Plant response rating, Barnyardgrass (0 to 100 scale, 0 is no effect, 100 is complete control) [18]: 0
